Measurements as given in the supplement of paper PMC4862054.
“And” between values parts separate entries of the source, which are not always exact repeats. Equal values may be shown once.

What was measured:
Conditions in all cases: incubation time: 72 h
HDQ-P1 [1] = test: normalised viability (% of control), CellTiter-Blue; higher = more viable cells (100 = DMSO, 0 = benzethonium chloride kill control)
Method in brief: (§1)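 Each entry is normalised viability at a single listed concentration within a series. It comes from breast cancer cell lines incubated 72 h with compound in 384-well plates, then measured with CellTiter-Blue fluorescence at 560/590 nm. Every plate was normalised between vehicle (100) and a positive kill control (0).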

DU-4475 [2] = test: as above
Method in brief: as §1

HCC1937 [3] = test: as above
Method in brief: as §1

MDA-MB-231 [4] = test: as above
Method in brief: as §1

BT-549 [5] = test: as above
Method in brief: as §1

CAL-85-1 [6] = test: as above
Method in brief: as §1

MDA-MB-453 [7] = test: as above
Method in brief: as §1

HCC1143 [8] = test: as above
Method in brief: as §1

CAL-120 [9] = test: as above
Method in brief: as §1

BT-474 [10] = test: as above
Method in brief: as §1

MDA-MB-468 [11] = test: as above
Method in brief: as §1

HCC1599 [12] = test: as above
Method in brief: as §1

MDA-MB-436 [13] = test: as above
Method in brief: as §1

SK-BR-3 [14] = test: as above
Method in brief: as §1

Hs578T [15] = test: as above
Method in brief: as §1

CAL-148 [16] = test: as above
Method in brief: as §1

MFM-223 [17] = test: as above
Method in brief: as §1

CAL-51 [18] = test: as above
Method in brief: as §1

HDQ-P1 [19] = test: normalised response (% of control), CellTiter-Glo; higher = more viable cells (100 = DMSO, 0 = benzethonium chloride kill control)
Method in brief: (§2)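 Compound was dispensed into 384-well plates at 5 concentrations in 10-fold steps spanning a 10,000-fold range specific to that compound. Breast cancer cell lines were added as 20 µl suspension and left for 72 h before CellTox Green fluorescence (485/520 nm) and then CellTiter-Glo luminescence, read after 10 min at room temperature. Each reported value is the normalised signal at one concentration, with 0.1 % DMSO set at 100 and a positive kill control at 0 on each plate.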

DU-4475 [20] = test: as above
Method in brief: as §2

HCC1937 [21] = test: as above
Method in brief: as §2

MDA-MB-231 [22] = test: as above
Method in brief: as §2

BT-549 [23] = test: as above
Method in brief: as §2

CAL-85-1 [24] = test: as above
Method in brief: as §2

MCF-10A = test: as above
Method in brief: as §2

MDA-MB-453 [25] = test: as above
Method in brief: as §2

HCC1143 [26] = test: as above
Method in brief: as §2

CAL-120 [27] = test: as above
Method in brief: as §2

BT-474 [28] = test: as above
Method in brief: as §2

MDA-MB-468 [29] = test: as above
Method in brief: as §2

HCC1599 [30] = test: as above
Method in brief: as §2

MDA-MB-436 [31] = test: as above
Method in brief: as §2

SK-BR-3 [32] = test: as above
Method in brief: as §2

Hs578T [33] = test: as above
Method in brief: as §2

CAL-148 [34] = test: as above
Method in brief: as §2

MFM-223 [35] = test: as above
Method in brief: as §2

CAL-51 [36] = test: as above
Method in brief: as §2

SMILES: NC1(c2ccc(-c3nc4ccn5c(=O)[nH]nc5c4cc3-c3ccccc3)cc2)CCC1 [MK-2206] (0.1 nM)
- normalised viability (HDQ-P1 [1]): 113%
- normalised viability (DU-4475 [2]): 118%
- normalised viability (HCC1937 [3]): 129%
- normalised viability (MDA-MB-231 [4]): 106%
- normalised viability (BT-549 [5]): 114%
- normalised viability (CAL-85-1 [6]): 108%
- normalised viability (MDA-MB-453 [7]): 105%
- normalised viability (HCC1143 [8]): 118%
- normalised viability (CAL-120 [9]): 106%
- normalised viability (BT-474 [10]): 115%
- normalised viability (MDA-MB-468 [11]): 111%
- normalised viability (HCC1599 [12]): 94.9%
- normalised viability (MDA-MB-436 [13]): 108%
- normalised viability (SK-BR-3 [14]): 107%
- normalised viability (Hs578T [15]): 107%
- normalised viability (CAL-148 [16]): 106%
- normalised viability (MFM-223 [17]): 100%
- normalised viability (CAL-51 [18]): 99.9%
- normalised response (HDQ-P1 [19]): 103%
- normalised response (DU-4475 [20]): 101%
- normalised response (HCC1937 [21]): 100%
- normalised response (MDA-MB-231 [22]): 106%
- normalised response (BT-549 [23]): 99.5%
- normalised response (CAL-85-1 [24]): 98.7%
- normalised response (MCF-10A): 107%
- normalised response (MDA-MB-453 [25]): 98.9%
- normalised response (HCC1143 [26]): 102%
- normalised response (CAL-120 [27]): 112%
- normalised response (BT-474 [28]): 101%
- normalised response (MDA-MB-468 [29]): 103%
- normalised response (HCC1599 [30]): 87.8%
- normalised response (MDA-MB-436 [31]): 98.3%
- normalised response (SK-BR-3 [32]): 110%
- normalised response (Hs578T [33]): 97.2%
- normalised response (CAL-148 [34]): 110%
- normalised response (MFM-223 [35]): 112%
- normalised response (CAL-51 [36]): 87.9%

SMILES: NC(=O)c1cccc2cn(-c3ccc([C@@H]4CCCNC4)cc3)nc12 [MK-4827] (1 nM)
- normalised viability (HDQ-P1 [1]): 85.9%
- normalised viability (DU-4475 [2]): 102%
- normalised viability (HCC1937 [3]): 97.3%
- normalised viability (MDA-MB-231 [4]): 96%
- normalised viability (BT-549 [5]): 112%
- normalised viability (CAL-85-1 [6]): 82.1%
- normalised viability (MDA-MB-453 [7]): 97.8%
- normalised viability (HCC1143 [8]): 92.1%
- normalised viability (CAL-120 [9]): 90.2%
- normalised viability (BT-474 [10]): 121%
- normalised viability (MDA-MB-468 [11]): 91.7%
- normalised viability (HCC1599 [12]): 97.1%
- normalised viability (MDA-MB-436 [13]): 80.8%
- normalised viability (SK-BR-3 [14]): 95.5%
- normalised viability (Hs578T [15]): 94.2%
- normalised viability (CAL-148 [16]): 105%
- normalised viability (MFM-223 [17]): 92.2%
- normalised viability (CAL-51 [18]): 108%
- normalised response (HDQ-P1 [19]): 100%
- normalised response (DU-4475 [20]): 98.1%
- normalised response (HCC1937 [21]): 102%
- normalised response (MDA-MB-231 [22]): 101%
- normalised response (BT-549 [23]): 102%
- normalised response (CAL-85-1 [24]): 102%
- normalised response (MCF-10A): 102%
- normalised response (MDA-MB-453 [25]): 99.3%
- normalised response (HCC1143 [26]): 105%
- normalised response (CAL-120 [27]): 101%
- normalised response (BT-474 [28]): 113%
- normalised response (MDA-MB-468 [29]): 104%
- normalised response (HCC1599 [30]): 110%
- normalised response (MDA-MB-436 [31]): 96.9%
- normalised response (SK-BR-3 [32]): 112%
- normalised response (Hs578T [33]): 103%
- normalised response (CAL-148 [34]): 115%
- normalised response (MFM-223 [35]): 101%
- normalised response (CAL-51 [36]): 99.9%

SMILES: O=C(c1cc(Cc2n[nH]c(=O)c3ccccc23)ccc1F)N1CCN(C(=O)C2CC2)CC1 [Olaparib] (1 nM)
- normalised viability (HDQ-P1 [1]): 96.9%
- normalised viability (DU-4475 [2]): 94.1%
- normalised viability (HCC1937 [3]): 102%
- normalised viability (MDA-MB-231 [4]): 84.8%
- normalised viability (BT-549 [5]): 86%
- normalised viability (CAL-85-1 [6]): 87.6%
- normalised viability (MDA-MB-453 [7]): 92.7%
- normalised viability (HCC1143 [8]): 88.4%
- normalised viability (CAL-120 [9]): 73.8%
- normalised viability (BT-474 [10]): 85.8%
- normalised viability (MDA-MB-468 [11]): 95.3%
- normalised viability (HCC1599 [12]): 89.9%
- normalised viability (MDA-MB-436 [13]): 113%
- normalised viability (SK-BR-3 [14]): 91.2%
- normalised viability (Hs578T [15]): 99.7%
- normalised viability (CAL-148 [16]): 87.1%
- normalised viability (MFM-223 [17]): 91%
- normalised viability (CAL-51 [18]): 103%
- normalised response (HDQ-P1 [19]): 95.9%
- normalised response (DU-4475 [20]): 102%
- normalised response (HCC1937 [21]): 90.5%
- normalised response (MDA-MB-231 [22]): 99.1%
- normalised response (BT-549 [23]): 103%
- normalised response (CAL-85-1 [24]): 103%
- normalised response (MCF-10A): 92.8%
- normalised response (MDA-MB-453 [25]): 103%
- normalised response (HCC1143 [26]): 93.1%
- normalised response (CAL-120 [27]): 92.4%
- normalised response (BT-474 [28]): 96.7%
- normalised response (MDA-MB-468 [29]): 99%
- normalised response (HCC1599 [30]): 101%
- normalised response (MDA-MB-436 [31]): 104%
- normalised response (SK-BR-3 [32]): 102%
- normalised response (Hs578T [33]): 99.9%
- normalised response (CAL-148 [34]): 93%
- normalised response (MFM-223 [35]): 96.7%
- normalised response (CAL-51 [36]): 114%

SMILES: CO[C@H](C(=O)[C@@H](O)[C@@H](C)O)[C@@H]1Cc2cc3cc(O[C@H]4C[C@@H](O[C@@H]5C[C@@H](O)[C@H](O)[C@@H](C)O5)[C@H](O)[C@@H](C)O4)c(C)c(O)c3c(O)c2C(=O)[C@H]1O[C@H]1C[C@@H](O[C@@H]2C[C@@H](O)[C@@H](O[C@@H]3C[C@](C)(O)[C@H](O)[C@@H](C)O3)[C@@H](C)O2)[C@H](O)[C@@H](C)O1 [Plicamycin] (1 nM)
- normalised viability (HDQ-P1 [1]): 111%
- normalised viability (DU-4475 [2]): 112% and 109%
- normalised viability (HCC1937 [3]): 97.7% and 85%
- normalised viability (MDA-MB-231 [4]): 94% and 98.7%
- normalised viability (BT-549 [5]): 93% and 90.1%
- normalised viability (CAL-85-1 [6]): 87.5% and 82.1%
- normalised viability (MDA-MB-453 [7]): 95.5% and 109%
- normalised viability (HCC1143 [8]): 96.8% and 82.4%
- normalised viability (CAL-120 [9]): 82.5% and 79.1%
- normalised viability (BT-474 [10]): 106% and 92.2%
- normalised viability (MDA-MB-468 [11]): 96.7% and 101%
- normalised viability (HCC1599 [12]): 101% and 107%
- normalised viability (MDA-MB-436 [13]): 108% and 92.6%
- normalised viability (SK-BR-3 [14]): 93.3% and 88.4%
- normalised viability (Hs578T [15]): 113% and 92.7%
- normalised viability (CAL-148 [16]): 111% and 108%
- normalised viability (MFM-223 [17]): 91.7% and 84.2%
- normalised viability (CAL-51 [18]): 102% and 112%
- normalised response (HDQ-P1 [19]): 101%
- normalised response (DU-4475 [20]): 107%
- normalised response (HCC1937 [21]): 96.9%
- normalised response (MDA-MB-231 [22]): 99.8%
- normalised response (BT-549 [23]): 102%
- normalised response (CAL-85-1 [24]): 102%
- normalised response (MCF-10A): 103%
- normalised response (MDA-MB-453 [25]): 108%
- normalised response (HCC1143 [26]): 92.6%
- normalised response (CAL-120 [27]): 113%
- normalised response (BT-474 [28]): 104%
- normalised response (MDA-MB-468 [29]): 113%
- normalised response (HCC1599 [30]): 102%
- normalised response (MDA-MB-436 [31]): 95%
- normalised response (SK-BR-3 [32]): 108%
- normalised response (Hs578T [33]): 102%
- normalised response (CAL-148 [34]): 112%
- normalised response (MFM-223 [35]): 106%
- normalised response (CAL-51 [36]): 92.5%
